In experiment [1] the target is T1, human NCX 1.1 current (I NCX) (Homo sapiens, UniProt P32418).
T1 construct: Cor.4U cells express cardiac proteins including NCX1; host or cells: Cor.4U hiPSC-derived cardiomyocytes
The experiment can be described thus: NCX current (I NCX), whole‐cell patch‐clamp in hiPSC‐derived cardiomyocytes. It is filed as cell-based. The settings on record: hiPSC‐CMs, 35–37°C. The source says:
Human‐induced pluripotent stem cell (hiPSC)‐derived CMs (Cor.4U CMs; RRID:CVCL_Y550) were thawed, seeded onto gelatine‐coated coverslips, and maintained, as described in the manufacturer's protocol.
Manual patch‐clamp recordings of membrane currents (I NCX, L‐type Ca^2+ channel current [I CaL], human cardiac sodium 1.5 current [I Na], and I hERG) were undertaken using either an Axopatch 200B or Axopatch ID amplifier (Molecular Devices, USA), using the whole‐cell configuration. […]
The measurement of current in the K^+‐free bath solution using a ramp voltage protocol at 20‐s intervals represented the first control, after which values were measured in the presence of one or more increasing concentrations of ORM‐11372 and finally upon exposure to 10‐mM NiCl2. […] Therefore, to enhance the inward current and enable a solution with a certain concentration of ORM‐11372 to be measured, the concentrations of the K^+‐free and pipette solutions were altered. […] The outward human I NCX inhibition current was measured at the following ORM‐11372 concentrations: 3 (n = 4), 10 (n = 6), 30 (n = 4), and 100 (n = 3) nM. […] The outward I NCX current in rat CMs was measured at concentrations ranging from 1 to 1,000 nM (n = 5). The inward I NCX current in rats was measured in additional experiments under changed conditions, to enhance the inward I NCX current. […]

A further experiment has as its target T2, h5‐HT2A receptors (Homo sapiens, UniProt P28223).
T2 construct: host or cells: recombinant HEK 293
The experiment is described as follows: h5‐HT2A agonism and antagonism, intracellular calcium in recombinant HEK 293 cells. The class given is cell-based. The settings on record: maximum concentration 10 μM. As to the method:
Radioligand binding assays were performed at Eurofins Cerep SA (Celle L'Evescault, France), for testing the inhibition capacity of ORM‐11372 (at 10 μM with two replicates), in over 75 targets. These included receptors (e.g., human A1, A2A, and A3 adenosine receptors; α1 and α2 adrenoceptors; human β1–β3 adrenergic receptors; human D1, D2S, D3, D4.4, and D5 dopamine receptors; EGF and VEGF receptors; human M1–M5 muscarinic ACh receptors; human 5‐HT1A, 5‐HT2A, 5‐HT2B, 5‐HT2C, 5‐HT4e, 5‐HT5A, 5‐HT6, and 5‐HT7 receptors), ion channels (5‐HT3, Ca^2+, ATP‐dependent potassium channel [KATP], voltage‐dependent potassium channel [KV], small‐conductance calcium‐dependent potassium channel [SKCa], Na^+, and Cl^−), and transporters (adenosine, noradrenaline, dopamine, and 5‐HT). Follow‐up functional studies (with five concentrations and two replicates) were performed for 5‐HT2A receptors and noradrenaline transporter. Agonism and antagonism at h5‐HT2A receptors was explored in recombinant HEK 293 cells and intracellular calcium changes were detected using fluorimetry. Noradrenaline uptake was measured by carrying out scintillation counting of [^3H]noradrenaline incorporated into rat hypothalamus synaptosomes.

“And” between values parts separate entries of the source, which are not always exact repeats. Equal entries are not always repeated. Where two headings read alike, the source gives them in different places.

T2 sequence (P28223 whole entry): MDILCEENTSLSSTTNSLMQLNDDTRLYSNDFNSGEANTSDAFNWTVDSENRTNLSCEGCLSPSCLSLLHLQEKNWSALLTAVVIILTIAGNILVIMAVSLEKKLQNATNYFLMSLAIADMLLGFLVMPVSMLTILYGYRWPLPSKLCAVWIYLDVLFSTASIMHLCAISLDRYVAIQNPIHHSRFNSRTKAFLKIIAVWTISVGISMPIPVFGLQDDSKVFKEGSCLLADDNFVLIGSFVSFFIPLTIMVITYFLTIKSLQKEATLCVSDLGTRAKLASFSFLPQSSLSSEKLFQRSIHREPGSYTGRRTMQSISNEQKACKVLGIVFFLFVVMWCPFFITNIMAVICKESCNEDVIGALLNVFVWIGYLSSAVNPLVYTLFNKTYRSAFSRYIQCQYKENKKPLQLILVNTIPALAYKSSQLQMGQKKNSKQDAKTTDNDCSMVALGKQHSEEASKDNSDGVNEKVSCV

The IC50 is the concentration at which inhibition is half-maximal. In the case of `Nc1cccc(-c2ccc(CNc3ccc(F)cc3)o2)c1` [ORM‐11372], the IC50 is 4.8 nM and 5 nM in experiment [1] (Ni^2+‐sensitive current at +60 mV, read-out: IC50 outward (reverse) I NCX); 5.6 nM and 6 nM in experiment [1] (Ni^2+‐sensitive current at −100 mV, read-out: IC50 inward (forward) I NCX). The “agonism / antagonism at 5‐HT2A receptors” value at h5‐HT2A receptors is listed as “Neither agonism nor antagonism”.

Values taken from article PMC7707092, “Discovery and characterization of ORM‐11372, a novel inhibitor of the sodium‐calcium exchanger with positive inotropic activity” (British Journal of Pharmacology, 2020).
